Each molecule was assayed against T1, VEGFR-2 (Homo sapiens, UniProt P35968) (assay: Protein kinase activity by ELISA in vitro, VEGFR-2). Conditions: concentration of 10^−7 mol/L; read-out: kinase inhibition ratio, VEGFR-2.
T1 construct: purchased Cell Signaling Technology CO
Type: biochemical
Protocol: An ELISA (Enzyme-Linked Immunosorbent Sandwich Assay) procedure may be used to detect and measure the level of protein tyrosine kinase activity. […] According to the principle of ELISA, a monoclonal antibody can react with phosphorylated substrate specially, so biotin-labeled substrate is binded to streptavidin-coated ELISA plate, and then binded to a HRP-labeled goat anti-mouse antibody. Finally TMB is added for a color reaction and the value of A450-A630 is read by ELISA plate reader. The OD value can reflect the inhibitory activity of the VEGFR-2, PDGFR-β, c-Kit tyrosine kinases etc. treated with the test compounds at the different concentrations. So, the assay may be used to measure the inhibition ratio of the compounds for the tyrosine kinase activity. Similar assays can be designed along the same lines for any PK using techniques well known in the art.
According to the principle of ELISA, a monoclonal antibody can react with phosphorylated substrate specially, so biotin-labeled substrate is binded to streptavidin-coated ELISA plate, and then binded to a HRP-labeled goat anti-mouse antibody. Finally TMB is added for a color reaction and the value of A450-A630 is read by ELISA plate reader. The OD value can reflect the inhibitory activity of the VEGFR-2, PDGFR-β c-Kit tyrosine kinases treated with the test compounds at the different concentrations. So, the assay may be used to measure the inhibition ratio of the compounds for the tyrosine kinase activity. Similar assays can be designed along the same lines for any PK using techniques well known in the art.
VEGF Receptor 2, PDGF Receptor-beta and c-kit kinase assay kit (include kinase, 1.25M DTT, substrate peptide, 10 mM ATP, P-Tyr-100 Mouse antibody, 4×HTScan tyrosine kinase buffer), Cell Signaling Technology CO.; HRP labeled goat anti mouse IgG, Protein Tech CO.; TMB, Pierce CO.; Streptavidin Microtitration Plate, Greiner Bio-one CO.; Infinite M200 Reader, Tecan CO.
1.2.1 Immediately transfer enzyme from −80° C. to ice. Allow enzyme to thaw on ice then at 4° C. and centrifugate transiently to the bottom of centrifuge tube, then lay back on ice quickly
1.2.2 Add 10 μl of DTT (1.25 M) to 2.5 ml of 4×HTScan tyrosine kinase buffer (240 mM HEPES pH 7.5, 20 mM MgCl2, 20 mM MnCl2, 12 μM Na3VO4). Transfer 0.6 ml of DTT/Kinase buffer to each enzyme tube to make 4× reaction Cocktail. Incubate 12.5 μl of the 4× reaction cocktail with 12.5 μl/well prediluted compound of interest for 5 minutes at room temperature, and set blank control, free-enzyme control, negative control and positive control. 1.2.3 Add 10 μl 10 mM ATP to 1.25 ml 6 μM substrate peptide. Dilute the mixture with dH20 to 2.5 ml to make 2×ATP/substrate cocktail. Add 25 μl of 2×ATP/substrate cocktail to 25 μl/well preincubated reaction cocktail/compound. Incubate reaction plate at room temperature for 30 minutes. 1.2.4 Add 50 μl/well stop Buffer (50 mM EDTA, pH 8) to stop the reaction. Transfer 25 μl of each reaction and 75 μl dH2O/well to a 96-well streptavidin coated plate and incubate at room temperature for 60 minutes. Wash three times with 200 μl/well PBS/T(1×PBS, 0.05% Tween-20). 1.2.5 Dilute primary antibody, Phospho-Tyrosine mAb (P-Tyr-100), 1:500 in PBS/T with 1% BSA. Add 100 μl/well primary antibody. Incubate at room temperature for 60 minutes. Wash three times with 200 μl/well PBS/T(1×PBS, 0.05% Tween-20). 1.2.6 Prepare appropriate dilution of HRP labeled secondary antibody, 1:500 in PBS/T with 1% BSA. Add 100 μl/well secondary antibody solution. Incubate at room temperature for 30 minutes. Wash five times with 200 μl/well PBS/T 1.2.7 Add 100 μl/well TMB substrate and incubate at room temperature for 1-10 minutes. Add 50 μl 2M H2SO4 to stop the color reaction. Read the absorbance of A450-A630 with the Infinite M200 microtiter plate reader. 1.2.8 Calculate the inhibition ratio with the following formula: […]

T1 sequence (P35968 20-1356): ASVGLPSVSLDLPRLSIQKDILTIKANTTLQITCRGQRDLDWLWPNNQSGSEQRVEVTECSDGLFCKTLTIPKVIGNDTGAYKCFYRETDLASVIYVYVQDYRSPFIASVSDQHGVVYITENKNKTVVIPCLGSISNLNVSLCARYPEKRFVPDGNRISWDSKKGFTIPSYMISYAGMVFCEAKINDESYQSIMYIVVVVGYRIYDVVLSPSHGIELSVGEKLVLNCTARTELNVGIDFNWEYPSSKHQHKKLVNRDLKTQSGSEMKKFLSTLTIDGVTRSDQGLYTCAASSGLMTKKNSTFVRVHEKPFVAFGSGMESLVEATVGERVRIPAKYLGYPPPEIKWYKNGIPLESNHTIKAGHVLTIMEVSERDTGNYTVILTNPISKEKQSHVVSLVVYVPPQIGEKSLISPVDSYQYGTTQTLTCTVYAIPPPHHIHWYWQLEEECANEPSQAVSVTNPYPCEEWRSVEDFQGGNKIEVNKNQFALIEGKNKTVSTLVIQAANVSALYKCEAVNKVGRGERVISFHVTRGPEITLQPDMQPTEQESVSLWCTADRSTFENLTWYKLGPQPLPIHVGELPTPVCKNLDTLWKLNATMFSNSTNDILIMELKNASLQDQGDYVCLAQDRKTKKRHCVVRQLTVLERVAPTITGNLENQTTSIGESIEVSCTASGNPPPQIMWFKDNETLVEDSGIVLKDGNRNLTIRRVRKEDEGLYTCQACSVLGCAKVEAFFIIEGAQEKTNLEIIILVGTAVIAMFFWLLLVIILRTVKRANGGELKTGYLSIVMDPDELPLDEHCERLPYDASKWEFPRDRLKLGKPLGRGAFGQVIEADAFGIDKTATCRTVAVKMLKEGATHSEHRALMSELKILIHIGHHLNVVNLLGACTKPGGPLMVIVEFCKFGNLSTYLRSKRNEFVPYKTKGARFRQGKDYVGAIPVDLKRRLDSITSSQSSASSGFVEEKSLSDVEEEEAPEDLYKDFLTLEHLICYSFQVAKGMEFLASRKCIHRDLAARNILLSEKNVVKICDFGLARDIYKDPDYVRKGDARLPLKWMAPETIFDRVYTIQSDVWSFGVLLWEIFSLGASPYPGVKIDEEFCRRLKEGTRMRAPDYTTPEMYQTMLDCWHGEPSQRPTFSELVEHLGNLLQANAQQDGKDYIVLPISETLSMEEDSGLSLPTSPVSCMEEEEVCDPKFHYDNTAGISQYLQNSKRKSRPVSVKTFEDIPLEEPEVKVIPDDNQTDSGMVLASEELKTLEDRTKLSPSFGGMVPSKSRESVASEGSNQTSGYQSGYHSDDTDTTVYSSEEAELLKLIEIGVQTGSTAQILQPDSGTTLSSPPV

Going from CCN(CC)CCNC(=O)c1c(C)[nH]c2c1CCC/C2=C1/C(=O)Nc2ccc(F)cc21 [I-2, N-(2-(diethylamino)ethyl)-2-methyl-7-[1,2-dihydro-5-fluoro-2-oxo-3H-indol-(Z)-3-ylidene]-4,5,6,7-tetrahydro-1H-indole-3-carboxamide] to CCN(CC)CCNC(=O)c1c(C)[nH]c2c1CCC/C2=C1/C(=O)Nc2ccc(C)cc21 [I-4, N-(2-(diethylamino)ethyl)-2-methyl-7-[1,2-dihydro-5-methyl-2-oxo-3H-indol-(Z)-3-ylidene]-4,5,6,7-tetrahydro-1H-indole-3-carboxamide], the inhibition at 0.1 µM rises from 75% to 76%.

Compared with Cc1[nH]c2c(c1C(=O)NCCN(C)C)CCC/C2=C1/C(=O)Nc2ccc(F)cc21 [I-6, N-(2-(dimethylamino)ethyl)-2-methyl-7-[1,2-dihydro-5-fluoro-2-oxo-3H-indol-(Z)-3-ylidene]-4,5,6,7-tetrahydro-1H-indole-3-carboxamide], Cc1[nH]c2c(c1C(=O)NCCCN(C)C)CCC/C2=C1/C(=O)Nc2ccc(Cl)cc21 [I-7, N-(3-(dimethylamino)propyl)-2-methyl-7-[1,2-dihydro-5-chloro-2-oxo-3H-indol-(Z)-3-ylidene]-4,5,6,7-tetrahydro-1H-indole-3-carboxamide] is higher in inhibition at 0.1 µM: 79% for the first, 82% for the second.

Going from CCN(CC)CC(O)CNC(=O)c1c(C)[nH]c2c1CCC/C2=C1/C(=O)Nc2ccccc21 (stereo not drawn) [I-63, N-(3-(diethylamino)-2-hydroxypropyl)-2-methyl-7-[1,2-dihydro-2-oxo-3H-indol-(Z)-3-ylidene]-4,5,6,7-tetrahydro-1H-indole-3-carboxamide] to CCN(CC)CCNC(=O)c1c(C)[nH]c2c1CCC/C2=C1/C(=O)Nc2ccccc21 [I-5, N-(2-(diethylamino)ethyl)-2-methyl-7-[1,2-dihydro-2-oxo-3H-indol-(Z)-3-ylidene]-4,5,6,7-tetrahydro-1H-indole-3-carboxamide], the inhibition at 0.1 µM falls from 80% to 74%.

First: Cc1[nH]c2c(c1C(=O)NCCO)CCC/C2=C1/C(=O)Nc2ccccc21 [I-8, N-(2-hydroxyethyl)-2-methyl-7-[1,2-dihydro-2-oxo-3H-indol-(Z)-3-ylidene]-4,5,6,7-tetrahydro-1H-indole-3-carboxamide]
Second: Cc1[nH]c2c(c1C(=O)NCC(O)CN1CCCC1)CCC/C2=C1/C(=O)Nc2ccccc21 (stereo not drawn) [I-70, N-(2-hydroxy-3-(pyrrolidin-1-yl)propyl)-2-methyl-7-[1,2-dihydro-2-oxo-3H-indol-(Z)-3-ylidene]-4,5,6,7-tetrahydro-1H-indole-3-carboxamide]
The inhibition at 0.1 µM of the first is lower: 76% for the first, 84% for the second.

In the case of CCN(CC)CCNC(=O)c1c(C)[nH]c2c1CCC/C2=C1/C(=O)Nc2ccc(Cl)cc21 [I-3, N-(2-(diethylamino)ethyl)-2-methyl-7-[1,2-dihydro-5-chloro-2-oxo-3H-indol-(Z)-3-ylidene]-4,5,6,7-tetrahydro-1H-indole-3-carboxamide], the inhibition at 0.1 µM is reported as 54%.

Same assay, conditions: read-out: IC50 of the VEGF Receptor Kinase

Cc1[nH]c2c(c1C(=O)NCC(O)CN1CCOCC1)CCC/C2=C1/C(=O)Nc2ccc(F)cc21 (stereo not drawn) [I-68, N-(2-hydroxy-3-morpholinopropyl)-2-methyl-7-[1,2-dihydro-5-fluoro-2-oxo-3H-indol-(Z)-3-ylidene]-4,5,6,7-tetrahydro-1H-indole-3-carboxamide] and Cc1[nH]c2c(c1C(=O)NCC(O)CN1CCCC1)CCC/C2=C1/C(=O)Nc2ccc(F)cc21 (stereo not drawn) [I-71, N-(2-hydroxy-3-(pyrrolidin-1-yl)propyl)-2-methyl-7-[1,2-dihydro-5-fluoro-2-oxo-3H-indol-(Z)-3-ylidene]-4,5,6,7-tetrahydro-1H-indole-3-carboxamide] are within 1.5-fold of each other in IC50: 43 nM for the first, 34 nM for the second.

Compared with Cc1[nH]c2c(c1C(=O)NCC(O)CN1CCCCC1)CCC/C2=C1/C(=O)Nc2ccc(F)cc21 (stereo not drawn) [I-74, N-(2-hydroxy-3-(piperidin-1-yl)propyl)-2-methyl-7-[1,2-dihydro-5-fluoro-2-oxo-3H-indol-(Z)-3-ylidene]-4,5,6,7-tetrahydro-1H-indole-3-carboxamide], Cc1[nH]c2c(c1C(=O)NCC(O)CN1CCN(C)CC1)CCC/C2=C1/C(=O)Nc2ccc(F)cc21 (stereo not drawn) [I-77, N-[2-hydroxy-3-(4-methylpiperazin-1-yl)propyl]-2-methyl-7-[1,2-dihydro-5-fluoro-2-oxo-3H-indol-(Z)-3-ylidene]-4,5,6,7-tetrahydro-1H-indole-3-carboxamide] is 1.9-fold higher in IC50: 13 nM for the first, 25 nM for the second. The first is the more potent here.

CCN(CC)CCNC(=O)c1c(C)[nH]c2c1CCC/C2=C1/C(=O)Nc2ccc(C)cc21 [I-4, N-(2-(diethylamino)ethyl)-2-methyl-7-[1,2-dihydro-5-methyl-2-oxo-3H-indol-(Z)-3-ylidene]-4,5,6,7-tetrahydro-1H-indole-3-carboxamide] and CCN(CC)CCNC(=O)c1c(C)[nH]c2c1CCC/C2=C1/C(=O)Nc2ccc(Cl)cc21 [I-3, N-(2-(diethylamino)ethyl)-2-methyl-7-[1,2-dihydro-5-chloro-2-oxo-3H-indol-(Z)-3-ylidene]-4,5,6,7-tetrahydro-1H-indole-3-carboxamide] are within 1.5-fold of each other in IC50: 5.6 nM for the first, 5.3 nM for the second.

Going from Cc1[nH]c2c(c1C(=O)N1CCN(C)CC1)CCC/C2=C1/C(=O)Nc2ccc(F)cc21 [I-14, 2-methyl-3-(4-methylpiperazine-1-carbonyl)-7-[1,2-dihydro-5-fluoro-2-oxo-3H-indol-(Z)-3-ylidene]-4,5,6,7-tetrahydro-1H-indole] to Cc1[nH]c2c(c1C(=O)NCCO)CCC/C2=C1/C(=O)Nc2ccc(F)cc21 [I-9, N-(2-hydroxyethyl)-2-methyl-7-[1,2-dihydro-5-fluoro-2-oxo-3H-indol-(Z)-3-ylidene]-4,5,6,7-tetrahydro-1H-indole-3-carboxamide], the IC50 falls from 79 nM to 30 nM (2.6-fold).

For CCN(CC)CCNC(=O)c1c(C)[nH]c2c1CCC/C2=C1/C(=O)Nc2ccccc21 [I-5, N-(2-(diethylamino)ethyl)-2-methyl-7-[1,2-dihydro-2-oxo-3H-indol-(Z)-3-ylidene]-4,5,6,7-tetrahydro-1H-indole-3-carboxamide], the IC50 was 9 nM.

From patent US8084621B2, “3-Pyrrolo[b]cyclohexylene-2-dihydroindolinone derivatives and uses thereof” (Jiangsu Simcere Pharmaceutical R&D Co. Ltd., priority 2006, dated 2011)
